{
  "source": "ChEMBL document CHEMBL1151127",
  "about": "“Studies of Swedish Marine Organisms, Part X. Biologically Active Compounds from the Marine Sponge Geodia baretti” (1988)",
  "key": {"[1]": {"system": "Ileum", "assay": "Contractile activity in guinea pig ileum at 1200 ug/ml relative to histamine", "format": "functional, Cavia porcellus"}, "[2]": {"system": "Ileum", "assay": "Inhibition of electrically-stimulated contraction in guinea pig ileum at 1200 ug/ml", "format": "functional", "conditions": "Cavia porcellus"}, "[3]": {"system": "Ileum", "assay": "Inhibition of electrically-stimulated contraction in guinea pig ileum at 232 ug/ml", "format": "functional", "conditions": "Cavia porcellus"}, "[4]": {"system": "Ileum", "assay": "Contractile activity in guinea pig ileum at 232 ug/ml relative to histamine", "format": "functional, Cavia porcellus"}, "[5]": {"system": "Ileum", "assay": "Contractile activity in guinea pig ileum at 50 ug/ml relative to histamine", "format": "functional, Cavia porcellus"}, "[6]": {"system": "Ileum", "assay": "Inhibition of electrically-stimulated contraction in guinea pig ileum at 50 ug/ml", "format": "functional", "conditions": "Cavia porcellus"}, "[7]": {"system": "Ileum", "assay": "Inhibition of electrically-stimulated contraction in guinea pig ileum at 15 ug/ml", "format": "functional", "conditions": "Cavia porcellus"}, "[8]": {"system": "Ileum", "assay": "Contractile activity in guinea pig ileum at 15 ug/ml relative to histamine", "format": "functional, Cavia porcellus"}, "[9]": {"system": "Ileum", "assay": "Inhibition of electrically-stimulated contraction in guinea pig ileum at 200 ug/ml", "format": "functional", "conditions": "Cavia porcellus"}, "[10]": {"system": "Ileum", "assay": "Contractile activity in guinea pig ileum at 200 ug/ml relative to histamine", "format": "functional, Cavia porcellus"}, "[11]": {"system": "Ileum", "assay": "Inhibition of electrically-stimulated contraction in guinea pig ileum at 67 ug/ml", "format": "functional", "conditions": "Cavia porcellus"}, "[12]": {"system": "Ileum", "assay": "Contractile activity in guinea pig ileum at 67 ug/ml relative to histamine", "format": "functional, Cavia porcellus"}},
  "data": [
    {"smiles": "Nc1ccn([C@H]2C[C@H](O)[C@@H](CO)O2)c(=O)n1", "note": "[DOXECITINE]", "values": [
      {"measurement": "Activity", "setting": "[1]", "result": 0, "unit": "%"},
      {"measurement": "inhibition at 1200 µg/mL", "setting": "[2]", "result": 27, "unit": "%"}
    ]},
    {"smiles": "Cn1c(=N)ccn([C@H]2C[C@H](O)[C@@H](CO)O2)c1=O", "values": [
      {"measurement": "inhibition at 232 µg/mL", "setting": "[3]", "result": 0, "unit": "%"},
      {"measurement": "Activity", "setting": "[4]", "result": 60, "unit": "%"}
    ]},
    {"smiles": "Cn1c(=O)ccn([C@H]2C[C@H](O)[C@@H](CO)O2)c1=O", "values": [
      {"measurement": "Activity", "setting": "[5]", "result": 0, "unit": "%"},
      {"measurement": "inhibition at 50 µg/mL", "setting": "[6]", "result": 0, "unit": "%"}
    ]},
    {"smiles": "N=C(N)NCCC[C@@H]1NC(=O)/C(=C/c2c[nH]c3cc(Br)ccc23)NC1=O", "note": "[BARETTIN]", "values": [
      {"measurement": "inhibition at 15 µg/mL", "setting": "[7]", "result": 62, "unit": "%"},
      {"measurement": "Activity", "setting": "[8]", "result": 0, "unit": "%"}
    ]},
    {"smiles": "O=c1ccn([C@@H]2O[C@H](CO)[C@@H](O)[C@H]2O)c(=O)[nH]1", "note": "[URIDINE]", "values": [
      {"measurement": "Activity", "setting": "[1]", "result": 0, "unit": "%"},
      {"measurement": "inhibition at 1200 µg/mL", "setting": "[2]", "result": 83, "unit": "%"}
    ]},
    {"smiles": "O=c1[nH]cnc2c1ncn2[C@@H]1O[C@H](CO)[C@@H](O)[C@H]1O", "note": "[INOSINE]", "values": [
      {"measurement": "inhibition at 200 µg/mL", "setting": "[9]", "result": 23, "unit": "%"},
      {"measurement": "Activity", "setting": "[10]", "result": 0, "unit": "%"}
    ]},
    {"smiles": "Nc1ncnc2c1ncn2[C@@H]1O[C@H](CO)[C@@H](O)[C@H]1O", "note": "[ADENOSINE]", "values": [
      {"measurement": "inhibition at 15 µg/mL", "setting": "[7]", "result": 85, "unit": "%"},
      {"measurement": "Activity", "setting": "[8]", "result": 0, "unit": "%"}
    ]},
    {"smiles": "Cn1c(=N)ccn([C@@H]2O[C@H](CO)[C@@H](O)[C@H]2O)c1=O", "values": [
      {"measurement": "inhibition at 67 µg/mL", "setting": "[11]", "result": 0, "unit": "%"},
      {"measurement": "Activity", "setting": "[12]", "result": 60, "unit": "%"}
    ]},
    {"smiles": "Nc1ccn([C@@H]2O[C@H](CO)[C@@H](O)[C@H]2O)c(=O)n1", "note": "[CYTIDINE]", "values": [
      {"measurement": "Activity", "setting": "[1]", "result": 0, "unit": "%"},
      {"measurement": "inhibition at 1200 µg/mL", "setting": "[2]", "result": 0, "unit": "%"}
    ]}
  ]
}
